In the experiment the test system is human σ1 receptor and human μ-opioid receptor. Description: Human σ1 receptor ([3H](+)-pentazocine) and human μ-opioid receptor ([3H]-DAMGO) radioligand assays, reported as one combined score. The conditions noted are these: combined class for Ki-σ1 (transfected HEK-293 membranes) and Ki-μ (transfected CHO-K1 cell membranes); for pKi: read-out: σ1 and μ binding. Format: binding. More on the design: key to σ1 and μ binding: +: Both Ki-μ and Ki-σ1>=1000 nM; ++: One Ki<1000 nM while the other Ki is >=1000 nM; +++: Both Ki-μ and Ki-σ1<1000 nM; ++++: Both Ki-μ and Ki-σ1<500 nM. On the procedure: Human σ1 Receptor Radioligand Assay
To investigate binding properties of test compounds to human σ1 receptor, transfected HEK-293 membranes and [^3H](+)-pentazocine (Perkin Elmer, NET-1056), as the radioligand, were used. The assay was carried out with 7 μg of membrane suspension, 5 nM of [^3H](+)-pentazocine in either absence or presence of either buffer or 10 μM Haloperidol for total and non-specific binding, respectively. Binding buffer contained Tris-HCl 50 mM at pH 8. Plates were incubated at 37° C. for 120 minutes. After the incubation period, the reaction mix was then transferred to MultiScreen HTS, FC plates (Millipore), filtered and plates were washed 3 times with ice-cold 10 mM TrisHCL (pH7.4). Filters were dried and counted at approximately 40% efficiency in a MicroBeta scintillation counter (Perkin-Elmer) using EcoScint liquid scintillation cocktail.
Preferably, transfected HEK-293 membranes (7 μg) were incubated with 5 nM of [^3H](+)-pentazocine in assay buffer containing Tris-HCl 50 mM at pH 8. NBS (non-specific binding) was measured by adding 10 μM Haloperidol. The binding of the test compound was measured at five different concentrations. Plates were incubated at 37° C. for 120 minutes. After the incubation period, the reaction mix was then transferred to MultiScreen HTS, FC plates (Millipore), filtered and plates were washed 3 times with ice-cold 10 mM TrisHCL (pH7.4). Filters were dried and counted at approximately 40% efficiency in a MicroBeta scintillation counter (Perkin-Elmer) using EcoScint liquid scintillation cocktail.
Human μ-Opioid Receptor Radioligand Assay
To investigate binding properties of test compounds to human μ-opioid receptor, transfected CHO-K1 cell membranes and [^3H]-DAMGO (Perkin Elmer, ES-542-C), as the radioligand, were used. The assay was carried out with 20 μg of membrane suspension, 1 nM of [^3H]-DAMGO in either absence or presence of either buffer or 10 μM Naloxone for total and non-specific binding, respectively. Binding buffer contained Tris-HCl 50 mM, MgCl2 5 mM at pH 7.4. Plates were incubated at 27° C. for 60 minutes. After the incubation period, the reaction mix was then transferred to MultiScreen HTS, FC plates (Millipore), filtered and plates were washed 3 times with ice-cold 10 mM TrisHCL (pH 7.4). Filters were dried and counted at approximately 40% efficiency in a MicroBeta scintillation counter (Perkin-Elmer) using EcoScint liquid scintillation cocktail.
Preferably, transfected CHO-K1 cell membranes (20 μg) were incubated with 1 nM of [^3H]-DAMGO in assay buffer containing Tris-HCl 50 mM, MgCl2 5 mM at pH 7.4. NBS (non-specific binding) was measured by adding 10 μM Naloxone. The binding of the test compound was measured at five different concentrations. Plates were incubated at 27° C. for 60 minutes. After the incubation period, the reaction mix was then transferred to MultiScreen HTS, FC plates (Millipore), filtered and plates were washed 3 times with ice-cold 10 mM TrisHCL (pH 7.4). Filters were dried and counted at approximately 40% efficiency in a MicroBeta scintillation counter (Perkin-Elmer) using EcoScint liquid scintillation cocktail.

pKi: −log10 of the molar value. Some results are limits rather than exact numbers.

Take `CCC(=O)N(CC1(CCCNCC(C)C)CCOCC1)c1cccc(C(F)(F)F)n1` [Example 5, N-((4-(3-(Isobutylamino)propyl)tetrahydro-2H-pyran-4-yl)methyl)-N-(6-(trifluoromethyl)pyridin-2-yl)propionamide]: the “σ1 and μ binding” value is listed as “++”.

Take `CCC(=O)N(CC1(N(C)CCNCC(C)C)CCOCC1)c1cccc(C(F)(F)F)n1` [Example 3, N-((4-((2-(Isobutylamino)ethyl)(methyl)amino)tetrahydro-2H-pyran-4-yl)methyl)-N-(6-(trifluoromethyl)pyridin-2-yl)propionamide]: the “σ1 and μ binding” value is recorded as “++”. Regarding `CCOCCN(C)CCCC1(CN(C(=O)CC)c2cccc(C(F)(F)F)n2)CCOCC1` [Example 9, N-((4-(3-((2-ethoxyethyl)(methyl)amino)propyl)tetrahydro-2H-pyran-4-yl)methyl)-N-(6-(trifluoromethyl)pyridin-2-yl)propionamide], the pKi is at most 6.00. The same measure, in the same setting: the value for `CCC(=O)N(CC1(CCNCC(C)C)CCOCC1)c1cccc(C(F)(F)F)n1` [Example 7, N-((4-(2-(isobutylamino)ethyl)tetrahydro-2H-pyran-4-yl)methyl)-N-(6-(trifluoromethyl)pyridin-2-yl)propionamide] was at most 6.00. As for `CCC(=O)N(CC1(CCCN(C)CC(C)C)CCOCC1)c1cccc(C(F)(F)F)n1` [Example 8, N-((4-(3-(isobutyl(methyl)amino)propyl)tetrahydro-2H-pyran-4-yl)methyl)-N-(6-(trifluoromethyl)pyridin-2-yl)propionamide], the “σ1 and μ binding” value is recorded as “++”. `CCOCCNCCCC1(CN(C(=O)CC)c2cccc(C(F)(F)F)n2)CCOCC1` [Example 6, N-((4-(3-((2-ethoxyethyl)amino)propyl)tetrahydro-2H-pyran-4-yl)methyl)-N-(6-(trifluoromethyl)pyridin-2-yl)propionamide]: the pKi was above 6.00. Turning to `CCC(=O)N(CC1(N(C)CCN(C)Cc2ccccc2)CCOCC1)c1cccc(C(F)(F)F)n1` [Example 2, N-((4-((2-(benzyl(methyl)amino)ethyl)(methyl)amino)tetrahydro-2H-pyran-4-yl)methyl)-N-(6-(trifluoromethyl)pyridin-2-yl)propionamide], the “σ1 and μ binding” value is “++”.

On to `CCC(=O)N(CC1(N(C)CCN(Cc2ccccc2)CC(C)C)CCOCC1)c1cccc(C(F)(F)F)n1` [Example 1, N-((4-((2-(Benzyl(isobutyl)amino)ethyl)(methyl)amino)tetrahydro-2H-pyran-4-yl)methyl)-N-(6-(trifluoromethyl)pyridin-2-yl)propionamide], for which the pKi is at most 6.00.

Take `CCOCCN(C)CCN(C)C1(CN(C(=O)CC)c2cccc(C(F)(F)F)n2)CCOCC1` [Example 4, N-((4-((2-((2-Ethoxyethyl)(methyl)amino)ethyl)(methyl)amino)tetrahydro-2H-pyran-4-yl)methyl)-N-(6-(trifluoromethyl)pyridin-2-yl)propionamide]: the “σ1 and μ binding” value was “++”.

These data come from patent publication US20200010457A1, “TETRAHYDROPYRAN AND TETRAHYDROTHIOPYRAN AMIDE DERIVATIVES HAVING MULTIMODAL ACTIVITY AGAINST PAIN” (ESTEVE PHARMACEUTICALS, S.A., priority 2016, published 2020).
